Measured values reported in patent US8541411B2, “Benzimidazole derivatives as PI3 kinase inhibitors” (GlaxoSmithKline LLC, priority 2010, dated 2013).

target: T1, PI3Kβ (Homo sapiens, UniProt P42338); assay: HTRF in vitro profiling assay for PI3K inhibition, beta isoform; assay type: biochemical; details: one experimental run or average of two or more runs; 200 pM enzyme, 100 uM ATP, 10 uM PIP2; read-out: P13KB PIC50 MEAN (converted)
T1 construct: made in house
Text: The PI3-Kinase profiling assays were developed to measure the compound-dependent inhibition of the alpha, beta, delta, and gamma isoforms of PI3K in an in vitro catalytic assay. This assay was developed and optimized from a kit produced by Upstate (Millipore catalog #33-017). Briefly, this procedure utilizes a pre-formed HTRF (Homogeneous Time-Resolved Fluorescence energy transfer) complex between four binding partners: 1) biotinylated PIP3, 2) GST tagged pleckstrin homology (PH) domain, 3) Europium labeled anti-GST monoclonal antibody, and 4) Streptavidin-Allophycocyanin (APC). The native PIP3 produced by PI 3-Kinase activity displaces biotin-PIP3 from the PH domain, resulting in the dissociation of the HTRF complex and a decrease in the fluorescence signal. The format of this assay is the same for all 4 isoforms of PI3K; the differences lie in the concentration of enzyme used to achieve the most robust signal. The alpha and delta assays are run at 400 pM enzyme; the beta assay is at 200 pM enzyme and the gamma assay is run at 1 nM enzyme. In addition, the alpha, beta and delta assays are run with 150 mM NaCl while the gamma assay is run in the absence of NaCl. The ATP concentration is 100 uM in the alpha, beta, and delta assays and 15 uM ATP in the gamma assay. All reactions are run at 10 uM PIP2
Compounds were serially diluted (3-fold in 100% DMSO) across a 384-well polypropylene mother plate from column 1 to column 12 and column 13 to column 24, to yield 11 concentrations for each test compound. Columns 6 and 18 contain only DMSO. Once titrations were made, 0.05 μL was transferred to a 384-well low-volume assay plate (Greiner 784076). This assay plate contained three pharmacological controls (known PI3K inhibitors) and 3 assay controls: (1) Enzyme without inhibitor; (2) Buffer minus enzyme, and (3) Buffer minus enzyme plus native PIP3. DMSO was stamped into all wells of columns 6 and 18. PIP3 was added at 40 μM in 1× Reaction buffer (1 μL of 200 μM PIP3) to alternating rows of column 18 (wells 18 B, D, F, H, J, L, N, P). The no-enzyme control reactions were run in wells 18 A, C, E, G, I, K, M, O (0.1 μL of 100% DMSO).
The PI3-Kinase profiling assay was optimized using the HTRF kit provided by Upstate (Millipore). The assay kit contained seven reagents: 1) 4× Reaction Buffer; 2) native PIP2 (substrate); 3) Stop A (EDTA); 4) Stop B (Biotin-PIP3); 5) Detection Mix A (Streptavidin-APC); 6) Detection Mix B (Eu-labeled Anti-GST plus GST-tagged PH-domain); 7) Detection Mix C (KF). In addition, the following items were obtained or purchased: PI3Kinase (prepared by GSK BR&AD), dithiothreitol (Sigma, D-5545), Adenosine-5′-triphosphate (ATP, Teknova cat. #A0220), native PIP3 (1,2-dioctanoyl-sn-glycero-3-[phosphoinositil-3,4,5-triphosphate]tetraammonium salt (Avanti polar lipids, 850186P), DMSO (Sigma, 472301).
PI3Kinase Reaction Buffer was prepared by diluting the stock 1:4 with de-ionized water. Freshly prepared DTT was added at a final concentration of 5 mM on the day of use. Enzyme addition and compound pre-incubation were initiated by the addition of 2.5 μL of PI3K (at twice its final concentration) in 1× reaction buffer to all wells using a Multidrop Combi. Plates were incubated at room temperature for 15 minutes. Reactions were initiated by addition of 2.5 μL of 2× substrate solution (PIP2 and ATP in 1× reaction buffer) using a Multidrop Combi. Plates were incubated at room temperature for one hour. Reactions were quenched by the addition of 2.5 μL of stop solution (Stop A and Stop B pre-mixed at a ratio of 5:1, respectively) to all wells using the Multidrop Combi.

T1 sequence (P42338 whole entry, canonical isoform): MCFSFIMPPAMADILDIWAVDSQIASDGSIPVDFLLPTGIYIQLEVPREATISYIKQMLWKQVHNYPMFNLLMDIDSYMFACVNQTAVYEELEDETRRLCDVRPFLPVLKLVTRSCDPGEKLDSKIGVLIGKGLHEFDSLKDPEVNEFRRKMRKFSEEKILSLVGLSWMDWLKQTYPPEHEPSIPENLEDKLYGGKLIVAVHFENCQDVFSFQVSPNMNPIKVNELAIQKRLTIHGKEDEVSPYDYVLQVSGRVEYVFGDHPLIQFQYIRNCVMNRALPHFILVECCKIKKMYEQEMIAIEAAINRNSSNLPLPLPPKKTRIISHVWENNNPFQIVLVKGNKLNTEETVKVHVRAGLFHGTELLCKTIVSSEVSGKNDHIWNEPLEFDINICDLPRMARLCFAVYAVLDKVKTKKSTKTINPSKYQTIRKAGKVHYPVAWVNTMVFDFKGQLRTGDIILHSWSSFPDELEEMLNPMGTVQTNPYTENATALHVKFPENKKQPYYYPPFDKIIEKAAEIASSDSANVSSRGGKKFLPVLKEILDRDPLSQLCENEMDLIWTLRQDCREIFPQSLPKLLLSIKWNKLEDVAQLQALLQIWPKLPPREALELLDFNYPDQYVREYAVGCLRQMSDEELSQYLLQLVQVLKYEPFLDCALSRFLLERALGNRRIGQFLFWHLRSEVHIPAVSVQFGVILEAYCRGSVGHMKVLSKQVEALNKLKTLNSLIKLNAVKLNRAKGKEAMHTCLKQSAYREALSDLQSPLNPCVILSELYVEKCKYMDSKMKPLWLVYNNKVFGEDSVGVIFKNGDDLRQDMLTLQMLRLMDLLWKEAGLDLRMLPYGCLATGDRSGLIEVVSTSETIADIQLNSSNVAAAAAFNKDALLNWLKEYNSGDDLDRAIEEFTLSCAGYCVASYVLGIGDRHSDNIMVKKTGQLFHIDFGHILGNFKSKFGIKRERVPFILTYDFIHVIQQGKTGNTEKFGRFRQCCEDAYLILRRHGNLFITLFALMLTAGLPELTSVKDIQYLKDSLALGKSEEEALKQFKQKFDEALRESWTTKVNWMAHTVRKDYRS
T1 sequence (P27986 whole entry partner, canonical isoform): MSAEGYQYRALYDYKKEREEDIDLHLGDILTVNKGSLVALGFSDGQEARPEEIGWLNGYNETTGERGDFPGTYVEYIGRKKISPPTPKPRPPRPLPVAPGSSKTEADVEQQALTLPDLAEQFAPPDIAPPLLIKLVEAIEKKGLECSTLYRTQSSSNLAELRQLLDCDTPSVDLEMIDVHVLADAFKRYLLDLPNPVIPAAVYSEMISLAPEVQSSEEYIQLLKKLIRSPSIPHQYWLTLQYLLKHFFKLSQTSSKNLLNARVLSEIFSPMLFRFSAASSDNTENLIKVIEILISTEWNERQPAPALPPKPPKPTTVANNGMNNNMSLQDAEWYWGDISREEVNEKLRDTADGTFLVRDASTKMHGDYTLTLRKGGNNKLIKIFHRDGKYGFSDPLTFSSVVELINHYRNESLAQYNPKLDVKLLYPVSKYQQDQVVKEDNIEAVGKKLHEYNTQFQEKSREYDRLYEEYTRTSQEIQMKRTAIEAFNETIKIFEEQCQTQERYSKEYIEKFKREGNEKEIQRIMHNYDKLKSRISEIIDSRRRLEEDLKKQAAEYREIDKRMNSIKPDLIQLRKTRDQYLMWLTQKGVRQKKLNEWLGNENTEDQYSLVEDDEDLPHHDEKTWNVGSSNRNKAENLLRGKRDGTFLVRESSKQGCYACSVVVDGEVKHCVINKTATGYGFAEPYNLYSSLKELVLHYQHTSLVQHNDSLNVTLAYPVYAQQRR

| Structure (SMILES) | IC50 [nM] |
| --- | --- |
| O=C(O)c1cc(N2CCOCC2)cc2c1nc(C(F)(F)F)n2Cc1cccc2ccccc12 [Example 50, 6-(4-morpholinyl)-1-(1-naphthalenylmethyl)-2-(trifluoromethyl)-1H-benzimidazole-4-carboxylic acid] | 1.26 |
| Cc1nc2c(C(=O)O)cc(N3CCOCC3)cc2n1Cc1cccc2ccsc12 [Example 73, 1-(1-benzothien-7-ylmethyl)-2-methyl-6-(4-morpholinyl)-1H-benzimidazole-4-carboxylic acid] | 25.1 |
| Cc1nc2c(C(=O)O)cc(N3CCOCC3)cc2n1Cc1cccc2cccnc12 [Example 35, 2-methyl-6-(4-morpholinyl)-1-(8-quinolinylmethyl)-1H-benzimidazole-4-carboxylic acid] | 63.1 |
| CCc1nc2c(F)cc(N3CCOCC3)cc2n1Cc1cccc(Cl)c1Cl [Example 18, 1-[(2,3-dichlorophenyl)methyl]-2-ethyl-4-fluoro-6-(4-morpholinyl)-1H-benzimidazole] | 10 |
| Cc1c(Cl)cccc1Cn1c(C(F)F)nc2c(C(=O)O)cc(N3CCOCC3)cc21 [Example 72, 1-[(3-chloro-2-methylphenyl)methyl]-2-(difluoromethyl)-6-(4-morpholinyl)-1H-benzimidazole-4-carboxylic acid] | 1.58 |
| Cc1c(Cn2c(C)nc3c(-c4nnc[nH]4)cc(N4CCOCC4)cc32)cccc1C(F)(F)F [Example 39, 2-methyl-1-{[2-methyl-3-(trifluoromethyl)phenyl]methyl}-6-(4-morpholinyl)-4-(1H-1,2,4-triazol-3-yl)-1H-benzimidazole] | 0.631 |
| Cc1c(Cn2c(C(F)(F)F)nc3c(C(N)=O)cc(N4CCOCC4)cc32)cccc1C(F)(F)F [Example 54, 1-{[2-methyl-3-(trifluoromethyl)phenyl]methyl}-6-(4-morpholinyl)-2-(trifluoromethyl)-1H-benzimidazole-4-carboxamide] | 2.51 |
| Cc1c(Cn2c(C)nc3c(Br)cc(N4CCOCC4)cc32)cccc1C(F)(F)F [Example 63, 4-bromo-2-methyl-1-{[2-methyl-3-(trifluoromethyl)phenyl]methyl}-6-(4-morpholinyl)-1H-benzimidazole] | 1 |
| CC(=O)Nc1cc(N2CCOCC2)cc2c1nc(C)n2Cc1cccc2ccccc12 [Example 3, N-(2-Methyl-6-morpholin-4-yl-1-naphthalen-1-ylmethyl-1H-benzoimidazol-4-yl)-acetamide] | 200 |
| CC(=O)c1cc(N2CCOCC2)cc2c1nc(C)n2Cc1cccc2ccccc12 [Example 41, 1-[2-methyl-6-(4-morpholinyl)-1-(1-naphthalenylmethyl)-1H-benzimidazol-4-yl]ethanone] | 1.58 |
| Cc1nc2c(-c3nnn[nH]3)cc(N3CCOCC3)cc2n1Cc1cccc2ccccc12 [Example 58, 2-methyl-6-(4-morpholinyl)-1-(1-naphthalenylmethyl)-4-(1H-tetrazol-5-yl)-1H-benzimidazole] | 6.31 |
| CCc1nc2c(O)cc(N3CCOCC3)cc2n1Cc1cccc(Cl)c1Cl [Example 14, 1-[(2,3-dichlorophenyl)methyl]-2-ethyl-6-(4-morpholinyl)-1H-benzimidazol-4-ol] | 3.16 |
| Cc1nc2c(-c3nnc[nH]3)cc(N3CCOCC3)cc2n1Cc1cccc2ccccc12 [Example 25, 2-methyl-6-(4-morpholinyl)-1-(1-naphthalenylmethyl)-4-(1H-1,2,4-triazol-3-yl)-1H-benzimidazole] | 0.251 |
| Cc1nc2c(C(=O)O)cc(N3CCOCC3)cc2n1Cc1ccc(Cl)c(Cl)c1 [Example 38, 1-[(3,4-dichlorophenyl)methyl]-2-methyl-6-(4-morpholinyl)-1H-benzimidazole-4-carboxylic acid] | 100 |
| CCc1nc2c(F)cc(N3CCOCC3)cc2n1Cc1cccc2ccccc12 [Example 17, 2-ethyl-4-fluoro-6-(4-morpholinyl)-1-(1-naphthalenylmethyl)-1H-benzimidazole] | 2.51 |
| CC(C)c1nc2c(O)cc(N3CCOCC3)cc2n1Cc1cccc2ccccc12 [Example 11, 2-(1-methylethyl)-6-(4-morpholinyl)-1-(1-naphthalenylmethyl)-1H-benzimidazol-4-ol] | 2 |
| CC(C)c1nc2c(O)cc(N3CCOCC3)cc2n1Cc1cccc(Cl)c1Cl [Example 13, 1-[(2,3-dichlorophenyl)methyl]-2-(1-methylethyl)-6-(4-morpholinyl)-1H-benzimidazol-4-ol] | 7.94 |
| Cc1nc2c(C#N)cc(N3CCOCC3)cc2n1Cc1cccc(Cl)c1Cl [Example 32, 1-[(2,3-dichlorophenyl)methyl]-2-methyl-6-(4-morpholinyl)-1H-benzimidazole-4-carbonitrile] | 12.6 |
| Cc1nc2c(C(=O)O)cc(N3CCOCC3)cc2n1Cc1cccc2ccccc12 [Example 20, 2-methyl-6-(4-morpholinyl)-1-(1-naphthalenylmethyl)-1H-benzimidazole-4-carboxylic acid] | 6.31 |
| Cc1c(Cn2c(C(F)F)nc3c(C(=O)O)cc(N4CCOCC4)cc32)cccc1C(F)(F)F [Example 70, 2-(difluoromethyl)-1-{[2-methyl-3-(trifluoromethyl)phenyl]methyl}-6-(4-morpholinyl)-1H-benzimidazole-4-carboxylic acid] | 0.2 |
| Cc1nc2c(C(=O)O)cc(N3CCOCC3)cc2n1Cc1cccc(Cl)c1Cl [Example 22, 1-[(2,3-dichlorophenyl)methyl]-2-methyl-6-(4-morpholinyl)-1H-benzimidazole-4-carboxylic acid] | 15.8 |
| Cc1nc2c(O)cc(N3CCOCC3)cc2n1Cc1cccc2ccccc12 [Example 5, 2-methyl-6-(4-morpholinyl)-1-(1-naphthalenylmethyl)-1H-benzimidazol-4-ol] | 1.58 |
| Cc1c(Cl)cccc1Cn1c(C)nc2c(C(=O)O)cc(N3CCOCC3)cc21 [Example 59, 1-[(3-chloro-2-methylphenyl)methyl]-2-methyl-6-(4-morpholinyl)-1H-benzimidazole-4-carboxylic acid] | 6.31 |
| Cc1nc2c(F)cc(N3CCOCC3)cc2n1Cc1cccc2ccccc12 [Example 15, 4-fluoro-2-methyl-6-(4-morpholinyl)-1-(1-naphthalenylmethyl)-1H-benzimidazole] | 1 |
| Cc1c(Cn2c(C)nc3c(CO)cc(N4CCOCC4)cc32)cccc1C(F)(F)F [Example 43, [2-methyl-1-{[2-methyl-3-(trifluoromethyl)phenyl]methyl}-6-(4-morpholinyl)-1H-benzimidazol-4-yl]methanol] | 5.01 |
| Cc1c(Cl)cccc1Cn1c(C(F)(F)F)nc2c(C(=O)O)cc(N3CCOCC3)cc21 [Example 53, 1-[(3-chloro-2-methylphenyl)methyl]-6-(4-morpholinyl)-2-(trifluoromethyl)-1H-benzimidazole-4-carboxylic acid] | 0.501 |
